The record followed here is PMC12495443, “Developing inhibitors of the guanosine triphosphate hydrolysis accelerating activity of Regulator of G protein Signaling-14 [drawing 1]” (The Journal of Biological Chemistry, 2025).

SMILES strings stand for the structures. Entries after “also recorded” stand apart in the source; their conditions may differ.

Data set [1] deals with T1, human RGS12 RGS-box (wild-type) (Homo sapiens, UniProt O14924).
T1 construct: human RGS12 RGS-box (aa 695–843 of UniProt O14924); host or cells: E. coli
T1 sequence (O14924 695-843): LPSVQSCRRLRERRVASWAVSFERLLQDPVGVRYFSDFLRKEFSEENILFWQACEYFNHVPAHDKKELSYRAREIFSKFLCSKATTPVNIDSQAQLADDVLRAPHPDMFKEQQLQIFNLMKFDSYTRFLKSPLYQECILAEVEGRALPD
Put plainly: Transcreener GDP RGScreen fluorescence polarization assay of RGS12 RGS-box GAP activity on Gαi1(DM). It is filed as biochemical. The settings on record: wild-type RGS12 RGS-box GAP activity, Gαi1(DM); for IC50: read-out: RGS12 pIC50 (converted). The source says: (§1) We previously described work with BellBrook Labs creating the Transcreener GDP RGScreen fluorescence polarization assay of steady-state GTP hydrolysis, leveraging a double point-mutant in the Gα enzyme to make GTP hydrolysis, rather than GDP (product) release, the rate-limiting step for multiple rounds of GTP conversion ([57], [59]). […] Titrating inputs of the double point-mutant (“DM”) Gαi1 and RGS-box recombinant proteins (Fig. S2, B and C) established a robust, medium-throughput assay for evaluating potential RGS14 and RGS12 inhibitors, with “assay quality” Z′ scores ([60]) above 0.76 for each target (Fig. S2D).
(§2) Reagents and protocols for the fluorescence anisotropy-based Transcreener GDP RGScreen assay using a rate-altered, double point-mutant, recombinant Gαi1 protein have been extensively described previously ([43], [44]); reactions were always performed so that total GTP converted over the time course was consistently less than 10% of reaction maximum input. Specific methods for its application in assessing RGS14 and RGS12 GAP activity are summarized as follows. Open-reading frames (ORFs) encoding wild-type versions of the human RGS14 RGS-box (aa 46–195 of UniProt O43566) and human RGS12 RGS-box (aa 695–843 of UniProt O14924) were each sub-cloned in-frame with an N-terminal hexahistidine (His6) expression tag in the plasmid pET30a, expressed in E. coli cultures, and then purified by nickel-nitriloacetate (Ni-NTA) and size-exclusion (Superdex 200) column chromatographies by GenScript using previously described methods ([35]). These recombinant His6-tag fusion proteins were stored at −80 °C in storage buffer (150 mM NaCl, 50 mM Tris-HCl pH 8.0, 10% glycerol) before thawing and use. Cysteine-less versions were similarly produced by ORF site-directed mutagenesis: for RGS14, codons for cysteine residues 47 and 130 (numbered as in PDB id 2JNU) were replaced with serine codons; for RGS12, codons for cysteines 4, 51, 78, and 134 (numbered in relation to PDB id 2EBZ) were replaced with serine codons. Use of Transcreener GDP-detection reagents to assess compound inhibition of Naegleria fowleri Gα7 protein GTPase activity ([83]) has previously been described ([84]).
For orientation: In fluorescence polarisation assays a small probe gives low polarisation when free and higher when bound to something large.

The target in data set [2] is T2, human RGS14 RGS-box (wild-type) (Homo sapiens, UniProt O43566).
T2 construct: human RGS14 RGS-box (aa 46–195 of UniProt O43566); host or cells: E. coli
T2 sequence (O43566 46-195): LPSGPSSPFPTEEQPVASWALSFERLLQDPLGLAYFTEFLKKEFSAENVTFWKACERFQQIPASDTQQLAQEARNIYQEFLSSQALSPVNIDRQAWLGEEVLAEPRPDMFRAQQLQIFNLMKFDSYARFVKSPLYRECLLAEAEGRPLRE
Put plainly: Transcreener GDP RGScreen fluorescence polarization assay of RGS14 RGS-box GAP activity on Gαi1(DM). It is filed as biochemical. Conditions: for Ratio (RGS14 pIC50 / RGS12 pIC50): values > 1.0 reflect RGS14 selectivity; for IC50: read-out: RGS14 pIC50 (converted).
From the text: as §1, §2

For a further data set, the system named is THP-1 cell line. Description: Cytotoxicity assays (CytoTox-Glo, CytoTox 96). In kind it is cell-based. The settings on record: THP-1 cells, overnight, CytoTox-Glo and CytoTox 96. As to the method:
To evaluate cellular toxicity of active compounds, we employed the immortalized human monocytic THP1-Dual cell line (InvivoGen) in two orthogonal cytotoxicity assays: ATP-dependent luminescence (CytoTox-Glo) and colorimetric lactate dehydrogenase (LDH) release (CytoTox 96). For each assay, compounds were serially diluted 2-fold starting at 250 μM and added to 96-well flat-bottom tissue culture plates (Thermo Scientific Nunc, Cat# 165306). THP1-Dual cells were then seeded at 20,000 to 30,000 cells per well in 100 μl RPMI 1640 media supplemented with 10% fetal bovine serum (Gibco). Plates were gently mixed and incubated overnight at 37 °C in a humidified 5% CO2 incubator. For the CytoTox-Glo assay (Promega, Cat# G9291), 50 μl of assay reagent was added to each well. Plates were mixed briefly, sealed, and incubated at room temperature for 15 min before reading luminescence on a TECAN Infinite M1000 Pro plate reader to quantify dead-cell signal. Subsequently, 50 μl of a digitonin-containing lysis solution was added to each well, followed by a second luminescence read after 15 min to assess total cell content. Percent cytotoxicity was calculated per manufacturer instructions. For the CytoTox 96 Non-Radioactive Cytotoxicity Assay (Promega, Cat# G1780), after overnight compound treatment, LDH release into the culture medium was measured by adding the provided substrate mix. Absorbance was read at 490 or 492 nm within 1 h of adding the stop solution. Assay optimization and data normalization were conducted according to the manufacturer’s technical manual.

A short description of data set [3]: Single-dose pharmacokinetic study, plasma and brain by LC-MS/MS. It is filed as in vivo, male Swiss-Webster mice. As to the method:
Single-dose pharmacokinetic (PK) studies were conducted under IACUC-approved protocols of the UNTSCP Preclinical Services laboratory at the University of North Texas Health Science Center. Male Swiss-Webster (CFW) mice (∼30 g; Charles River) were used in both studies, housed in groups of three per cage with ad libitum access to food and water and acclimated for a minimum of 3 days prior to dosing. Each compound was evaluated in a single-dose, time-course design using three mice per time point across seven collection points (0.25, 0.5, 1, 2, 4, 8, and 24 h post-dose). For Z56944652, mice received a single intraperitoneal (IP) dose of 10 mg/kg (0.2 ml at 1.5 mg/ml). At each designated time point, mice were euthanized via CO2 inhalation, and blood was collected by cardiac puncture for plasma isolation (K2-EDTA tubes). Brains were aseptically removed, flash-frozen, and stored at −80 °C. For Z55628018, due to poor detection in preliminary studies, the protocol was modified to enhance systemic exposure. Mice were pre-dosed orally with 50 mg/kg of the pan-CYP inhibitor 1-aminobenzotriazole (ABT; ref. ([67])) 2 h prior to administration of Z55628018. The compound was then administered via IP injection at a single dose of 30 mg/kg (0.2 ml at […]). Sample collection and processing procedures were identical to those described above for Z56944652.
LC-MS/MS analyses were performed at UNTHSC using an Agilent 1260 Infinity HPLC system coupled to an Agilent 6460 Triple Quadrupole mass spectrometer equipped with Jet Stream electrospray ionization (ESI) in positive ion mode. Separation was carried out on a Poroshell 120 EC-C18 column (50 × 3.0 mm, 2.7 μm particle size) maintained at 30 °C, with a mobile phase consisting of 0.1% formic acid in water (A) and 0.1% formic acid in acetonitrile (B) under a standard gradient elution at a flow rate of 0.5 ml/min. The injection volume was 2 μl. Multiple reaction monitoring (MRM) transitions were optimized for each compound: Z56944652 was detected at m/z 353.1 → 227/132/126, and Z55628018 at m/z 391 → 134.8/247.9/132/121. The internal standard, carbamazepine, was monitored at m/z 237.2 → 167. Plasma samples (30–40 μl) were extracted with 1000 to 1200 μl of either acetonitrile or a 50:50 acetonitrile:methanol mixture containing carbamazepine (150–500 ng/ml), followed by vortexing, sonication, centrifugation, and supernatant collection for injection. Brain samples were homogenized in organic solvent (2 ml per 0.5 g tissue), vortexed, centrifuged, and processed using the same analytical workflow. Matrix-matched calibration curves were prepared using blank plasma or brain extract and validated over appropriate dynamic ranges: 0.09 to 46 μg/ml (plasma) and 0.547 to 70 ng/ml (brain) for Z56944652; 0.1 to 12.5 μg/ml (plasma) and 0.1 to 3.13 ng/ml (brain) for Z55628018. […] Retention times were 5.0 ± 0.01 min for Z56944652 and 3.3 ± 0.01 min for Z55628018, with the internal standard eluting at 4.0 ± 0.02 min.

The mark [4] stands for this setting: wild-type RGS14 RGS-box GAP activity, Gαi1(DM), Transcreener GDP RGScreen.

Take `C1=C(c2cc3ccccc3o2)Nn2c(nnc2C2COc3ccccc3O2)S1` (stereo not shown) [Z55628018, 6-(1-benzofuran-2-yl)-3-(2,3-dihydro-1,4-benzodioxin-2-yl)-5H-[1,2,4]triazolo[3,4-b][1,3,4]thiadiazine]: the figures for the IC50 in data set [1] and in data set [2] (setting [4]) were 5.75 µM and 14.5 µM, respectively. Moreover, the “Ratio (RGS14 pIC50 / RGS12 pIC50)” value in data set [2] worked out at 0.92. The cytotoxicity result in the data set on THP-1 cell line is “Neither triazolothiadiazine derivative was observed to induce significant cell death”. In data set [3] (30 mg/kg IP after 50 mg/kg oral 1-aminobenzotriazole, any time point), the brain tissue concentration entry is listed as “No measurable concentrations; also recorded: undetectable”. In data set [3] (male, Swiss-Webster (CFW), mouse, plasma, intraperitoneal, 30 mg/kg IP after 50 mg/kg oral 1-aminobenzotriazole, one of three mice, 1-h time point), this molecule gave a concentration at 1 h of 170 ng/mL.

On to `O=C(O)CC1Sc2nnc(C3CCCO3)n2N=C1c1ccc(Cl)cc1` (stereo not shown) [Z90278051], for which the figures for the IC50 in data set [1] and in data set [2] (setting [4]) were 107 µM and 56.2 µM, respectively. In addition, in data set [2], the “Ratio (RGS14 pIC50 / RGS12 pIC50)” value was 1.07.

For the molecule `C1CC[C@H]2Sc3nnc([C@H]4CCCO4)n3N=C2C1` [Z90278035], the IC50 in data set [1] was 30.2 µM; in data set [2] (setting [4]), 61.7 µM. Moreover, in data set [2], the “Ratio (RGS14 pIC50 / RGS12 pIC50)” value came out at 0.93.

On to `FC(F)Oc1ccc(C2=Nn3c(COc4ccccc4)nnc3SC2)cc1` [Z56840012], for which the values for the IC50 in data set [1] and in data set [2] (setting [4]) were 11.5 µM and 36.3 µM, respectively. Further, the “Ratio (RGS14 pIC50 / RGS12 pIC50)” value in data set [2] was 0.90.

As for `Cc1ccc(C2=Nn3c(COc4ccc(Cl)cc4)nnc3SC2CC(=O)O)cc1` (stereo not shown) [Z90276194], the “RGS12 pIC50” value in data set [1] turned out to be 4.21. Besides, the “Ratio (RGS14 pIC50 / RGS12 pIC50)” value in data set [2] is given as 1.00. Further, the “RGS14 pIC50” value in data set [2] (setting [4]) is reported as 4.21.

As to `CCOc1ccccc1-c1nnc2n1N=C(c1ccc(NC(=O)C(C)C)cc1)[C@@H](C)S2` [Z90278674], the IC50 in data set [1] was 44.7 µM; in data set [2] (setting [4]), 102 µM. Further, the “Ratio (RGS14 pIC50 / RGS12 pIC50)” value in data set [2] was 0.92.

Turning to `Cc1ccc(C2=Nn3c(nnc3C3CC3)SC2CC(=O)O)cc1` (stereo not shown) [Z90274594], the IC50 in data set [1] is 66.1 µM; in data set [2] (setting [4]), 275 µM. Also, the “Ratio (RGS14 pIC50 / RGS12 pIC50)” value in data set [2] was 0.85.

With `CC(C)c1nnc2n1N=C(c1cc3ccccc3o1)CS2` [Z55627782], the IC50 was 27.5 µM in data set [1] and 191 µM in data set [2] (setting [4]). Also, in data set [2], the “Ratio (RGS14 pIC50 / RGS12 pIC50)” value is 0.82.

With `COc1ccccc1C1=CSc2nnc(COc3ccccc3)n2N1` [Z56944652, 6-(2-methoxyphenyl)-3-(phenoxymethyl)-5H-[1,2,4]triazolo[3,4-b][1,3,4]thiadiazine], the IC50 is 3.39 µM in data set [1] and 19.1 µM in data set [2] (setting [4]). Moreover, in data set [2], the “Ratio (RGS14 pIC50 / RGS12 pIC50)” value worked out at 0.86. Moreover, the cytotoxicity result in the data set with THP-1 cell line is reported as “Neither triazolothiadiazine derivative was observed to induce significant cell death”. Further, in data set [3] (10 mg/kg IP single dose, mice), the “time of peak brain level” value was found to be 1 h. Besides, the peak brain level in data set [3] (10 mg/kg IP single dose, mice, 1 h post-dose) was about 20 ng/g tissue. Moreover, in data set [3] (10 mg/kg IP, three Swiss Webster mice, at 1 h), the “peak CNS level (mean ± SD)” value is reported as 19.5 ± 0.3 ng/gram brain tissue. In addition, in data set [3] (male, Swiss-Webster (CFW), mouse, brain, 10 mg/kg IP, throughout the measured time course, read-out: brain-to-plasma concentration ratio (Kp)), the Kp was about 1.

On to `COc1ccc(OCc2nnc3n2N=C(c2cccc(N4CCCC4=O)c2)CS3)cc1` [Z667824974], for which the IC50 is 224 µM in data set [1] and 646 µM in data set [2] (setting [4]). Moreover, the “Ratio (RGS14 pIC50 / RGS12 pIC50)” value in data set [2] worked out at 0.87.

As to `Cc1ccc(C2=Nn3c(COc4ccccc4)nnc3SC2)c(C)c1` [Z55659515], the IC50 in data set [1] and in data set [2] (setting [4]) was 4.07 µM in each case.

Regarding `COc1cccc(OCc2nnc3n2N=C(c2ccccc2)[C@H](CC(=O)O)S3)c1` [Z90278437], the IC50 was 174 µM in data set [1] and 170 µM in data set [2] (setting [4]). The “Ratio (RGS14 pIC50 / RGS12 pIC50)” value in data set [2] was 1.00.

Turning to `CCN(CC)S(=O)(=O)c1cccc(-c2nnc3n2N=C(c2ccc(C)cc2)C(CC(=O)O)S3)c1` (stereo not shown) [Z90274338], the IC50 is 288 µM in data set [1] and 93.3 µM in data set [2] (setting [4]). The “Ratio (RGS14 pIC50 / RGS12 pIC50)” value in data set [2] is 1.14.
